Test results taken from US8475848B2, “Cosmetic composition having anti-radical properties and corresponding application method” (Yves Saint Laurent Parfums, priority 2007, dated 2013).

Tests used:
[1] = DPPH test on pure extracts (reduction of DPPH, optical density); assay type: biochemical; conditions: for % control (OD) / Activity (DPPH reduction): DPPH test
From the text: (§1) The activity of the pure extracts was studied by means of two biochemical tests: one was based on the reduction of 2,2-diphenyl-1-picrylhydrazyl (DPPH) by the anti-oxidants, and the other was based on the measurement of hydrogen peroxide (H2O2) in the reaction media. H2O2 is trapped by a specific reagent, “AmplexRed”. 2,2-diphenyl-1-picrylhydrazyl (DPPH) is a stable radical compound that is reduced to 1,1-diphenyl-2-picrylhydrazine by anti-oxidants. This reduction is followed by a color change in the DPPH solution (optical density measurement).
(§2) The pure extracts as well as the anti-oxidant references (α-tocopherol and BHA: butylated hydroxyanisole for DPPH, BHA alone for AmplexRed) were dissolved in ethanol. Controls using ethanol alone were produced in order to verify the absence of interference of this solvent.
The products for this test were tested starting from a concentration of 1 mg/ml in a power of ten series. The alpha-tocopherol positive control was tested at a concentration of 0.1 μM [micromolar] and the BHA was tested at a concentration of 50 μM.

[2] = H2O2/AmplexRed test on pure extracts (fluorescence); assay type: biochemical
From the text: as §1
AmplexRed is a compound which reacts in a stoichiometric manner with H2O2, producing a fluorescent red compound, resofurin, which can be measured by fluorescence. This test can detect small quantities of H2O2.
as §2
The products for this test were tested starting from a concentration of 1 μg/ml in a power of ten series. The BHA positive control was tested at concentrations of 50 μM and 500 μM.

irradiated skin explants = assay: Lipid peroxidation test on irradiated skin explants, extracts associated with an insoluble mineral substrate dispersed in carnation oil; assay type: cell-based; conditions: reference (positive control), 5 mg/cm^2 topical, UVA+B
Method: Study of the activity of extracts associated with an insoluble mineral substrate dispersed in carnation oil were carried out using a lipid peroxidation test on irradiated skin explants. This test, which was carried out by applying the products topically, meant that the effects of non-hydrosoluble extracts could be studied in vitro.
Upon receipt, the skin explants were cut and placed in culture.
The test products or the reference (positive control=BHA) were then applied to the surface of the explants in a quantity of 5 mg/cm^2 [milligrams/square centimeter] and the explants were placed in an incubator for 24 h [hours] at 37° C. in the presence of 95% air and 5% CO2.
After incubation and washing, the explants for each series were exposed to irradiation using ultraviolet A and B (UVA+B) radiation. Irradiation was carried out using a SOL500 Sun Simulator lamp with an H2 filter and the exposure conditions were as follows: • UVA+B filter: • UVA: power 11.5 mW/cm^2 [milliwatt/square centimeter] i.e. 678.6 mJ/cm^2/minute [millijoule/square centimeter/minute]; • UVB: power 0.78 mW/cm^2, i.e. 47.1 mJ/cm^2/minute; • Irradiation period: 21 minutes; • i.e. approximately 1 J/cm^2 of UVB and 14 J/cm^2 of UVA.
Three other untreated control explants were kept away from the light. […]
The epidermis was then extracted and the viability of the cells was evaluated using MTT reduction. […]

Row | SMILES | % control (OD) ([1]; 50 μM) | Activity (DPPH reduction) ([1]; 50 μM) | % control (fluorescence intensity) ([2]; 50 μM) | Activity (reduction of free H2O2) ([2]; 50 μM) | % control (fluorescence intensity) ([2]; 500 μM) | Activity (reduction of free H2O2) ([2]; 500 μM) | production of lipid peroxides after irradiation (in words) (irradiated skin explants) | % control (OD) ([1]; 0.1 μM) | Activity (DPPH reduction) ([1]; 0.1 μM) | reduction of DPPH (in words) ([1]; reference, 0.1 μM)
1 | COc1ccc(O)c(C(C)(C)C)c1 [BHA, butylated hydroxyanisole] | 74% | +/− (25% reduction) | 38% | ++ (strong reduction more than 50%) | 34% | ++ (strong reduction more than 50%) | greatly reduced the production of lipid peroxides |  |  | 
2 | Cc1c(C)c2c(c(C)c1O)CC[C@@](C)(CCC[C@H](C)CCC[C@H](C)CCCC(C)C)O2 [Tocopherol, α-tocopherol] |  |  |  |  |  |  |  | 9% | ++ (large reduction more than 50%) | clearly reduced the DPPH
